One block for each compound: values may come before it.
Biological target: His6-TEV-PDGFRβ (557-1016) (Homo sapiens (Human), UniProt P09619)
Test: PDGFRβ HTRF Assay
Type: biochemical
Conditions: read-out: PDGFR HTRF IC50
In short: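 Human PDGFRβ (557-1016) pre-incubated with compound for 30 min at RT in pH 7.5 HEPES/MgCl2/EGTA/Brij-35/DTT buffer. Reaction started with ATP and TK-biotin peptide, run 3 h at RT, then quenched with EDTA-containing Eu-cryptate antibody/streptavidin-XL665. HTRF 665/620 nm ratio read after 60 min; percent inhibition relative to DMSO and 10 μM imatinib controls.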

His6-TEV-PDGFRβ (557-1016), sequence (P09619 557-1016): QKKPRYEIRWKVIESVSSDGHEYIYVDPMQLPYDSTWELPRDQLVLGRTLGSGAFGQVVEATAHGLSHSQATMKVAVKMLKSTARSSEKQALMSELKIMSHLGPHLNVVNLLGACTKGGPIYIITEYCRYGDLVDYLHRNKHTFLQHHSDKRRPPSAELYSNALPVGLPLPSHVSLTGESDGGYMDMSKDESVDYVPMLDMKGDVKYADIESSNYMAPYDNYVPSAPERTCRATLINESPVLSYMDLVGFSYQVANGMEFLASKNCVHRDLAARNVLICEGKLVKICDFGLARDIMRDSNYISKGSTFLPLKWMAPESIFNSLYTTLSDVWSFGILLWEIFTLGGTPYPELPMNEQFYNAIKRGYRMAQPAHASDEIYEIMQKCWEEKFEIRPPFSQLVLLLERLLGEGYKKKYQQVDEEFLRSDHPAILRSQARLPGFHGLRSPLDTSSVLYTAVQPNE

Compound: Cc1ncc(NC(=O)CNC2CCC2)cc1NC(=O)c1cnn2cc(-c3cnn4c3CCC4)sc12 [Example 471, N-(5-(2-(cyclobutylamino)acetamido)-2-methylpyridin-3-yl)-2-(5,6-dihydro-4H-pyrrolo[1,2-b]pyrazol-3-yl)pyrazolo[5,1-b]thiazole-7-carboxamide]
IC50: 0.1 nM

Compound: CCCNCC(=O)Nc1cnc(C)c(NC(=O)c2cnn3cc(-c4cnn5c4OCCC5)sc23)c1 [Example 455, 2-(6,7-dihydro-5H-pyrazolo[5,1-b][1,3]oxazin-3-yl)-N-(2-methyl-5-(2-(propylamino)acetamido)pyridin-3-yl)pyrazolo[5,1-b]thiazole-7-carboxamide]
IC50: 0.6 nM

Compound: Cc1cc(C(=O)NCCN2CCCC23CC3)sc1NC(=O)c1cnn2cc(-c3cnn(C)c3)sc12 [Example 37, N-(5-((2-(4-azaspiro[2.4]heptan-4-yl)ethyl)carbamoyl)-3-methylthiophen-2-yl)-2-(1-methyl-1H-pyrazol-4-yl)pyrazolo[5,1-b]thiazole-7-carboxamide]
IC50: 22.8 nM

Compound: Cc1ncc(NC(=O)CN2CCC23CCC3)cc1NC(=O)c1cnn2cc(-c3cnn4c3OCCC4)sc12 [Example 408, N-(5-(2-(1-azaspiro[3.3]heptan-1-yl)acetamido)-2-methylpyridin-3-yl)-2-(6,7-dihydro-5H-pyrazolo[5,1-b][1,3]oxazin-3-yl)pyrazolo[5,1-b]thiazole-7-carboxamide]
IC50: 0.2 nM

Compound: Cc1ncc(NC(=O)CN2CCCC2(C)C)cc1NC(=O)c1cnn2cc(-c3cnn(CCO)c3)sc12 [Example 447, N-(5-(2-(2,2-dimethylpyrrolidin-1-yl)acetamido)-2-methylpyridin-3-yl)-2-(1-(2-hydroxyethyl)-1H-pyrazol-4-yl)pyrazolo[5,1-b]thiazole-7-carboxamide]
IC50: 0.5 nM

Compound: Cc1ncc(NC(=O)CNC2CCCC2)cc1NC(=O)c1cnn2cc(-c3cnn4c3CCC4)sc12 [Example 422, N-(5-(2-(cyclopentylamino)acetamido)-2-methylpyridin-3-yl)-2-(5,6-dihydro-4H-pyrrolo[1,2-b]pyrazol-3-yl)pyrazolo[5,1-b]thiazole-7-carboxamide]
IC50: 0.2 nM

Compound: Cc1ncc(NC(=O)CN2CC(C)(C)C2)cc1NC(=O)c1cnn2cc(-c3c(C)nn(C4COC4)c3C)sc12 [Example 425, 2-(3,5-dimethyl-1-(oxetan-3-yl)-1H-pyrazol-4-yl)-N-(5-(2-(3,3-dimethylazetidin-1-yl)acetamido)-2-methylpyridin-3-yl)pyrazolo[5,1-b]thiazole-7-carboxamide]
IC50: 0.7 nM

Compound: Cc1ncc(NC(=O)CN2CC(C)(C)C2)cc1NC(=O)c1cnn2cc(-c3cnn(C)c3C)sc12 [Example 434, 2-(1,5-Dimethyl-1H-pyrazol-4-yl)-N-(5-(2-(3,3-dimethylazetidin-1-yl)acetamido)-2-methylpyridin-3-yl)pyrazolo[5,1-b]thiazole-7-carboxamide]
IC50: 0.2 nM

IC50: 0.3 nM
Compound: Cc1ncc(C(=O)NCCN2CC3CCC2CC3)cc1NC(=O)c1cnn2cc(-c3cnn4c3COCC4)sc12 [Example 459, N-(5-((2-(2-azabicyclo[2.2.2]octan-2-yl)ethyl)carbamoyl)-2-methylpyridin-3-yl)-2-(6,7-dihydro-4H-pyrazolo[5,1-c][1,4]oxazin-3-yl)pyrazolo[5,1-b]thiazole-7-carboxamide]

Compound: Cc1ncc(C(=O)NCCN2CCCC2(C)C)cc1NC(=O)c1cnn2cc(-c3cnn4c3OCCC4)sc12 [Example 460, 2-(6,7-dihydro-5H-pyrazolo[5,1-b][1,3]oxazin-3-yl)-N-(5-((2-(2,2-dimethylpyrrolidin-1-yl)ethyl)carbamoyl)-2-methylpyridin-3-yl)pyrazolo[5,1-b]thiazole-7-carboxamide]
IC50: 0.3 nM

Compound: Cc1ncc(NC(=O)CN2CCC(C)C2)cc1NC(=O)c1cnn2cc(-c3cn(C)nc3C)sc12 (centres unmarked) [Example 446, 2-(1,3-Dimethyl-1H-pyrazol-4-yl)-N-(2-methyl-5-(2-(3-methylpyrrolidin-1-yl)acetamido)pyridin-3-yl)pyrazolo[5,1-b]thiazole-7-carboxamide]
IC50: 0.3 nM

Compound: Cc1ncc(NC(=O)C[C@H]2CCN(C(C)C)C2)cc1NC(=O)c1cnn2cc(-c3cnn(C)c3)sc12 [Example 465, (R)—N-(5-(2-(1-isopropylpyrrolidin-3-yl)acetamido)-2-methylpyridin-3-yl)-2-(1-methyl-1H-pyrazol-4-yl)pyrazolo[5,1-b]thiazole-7-carboxamide]
IC50: 3 nM

Compound: COCCn1cc(-c2cn3ncc(C(=O)Nc4cc(NC(=O)C5(CN6CCC[C@@H]6C)CC5)cnc4C)c3s2)cn1 [Example 452, (S)-2-(1-(2-methoxyethyl)-1H-pyrazol-4-yl)-N-(2-methyl-5-(1-((2-methylpyrrolidin-1-yl)methyl)cyclopropanecarboxamido)pyridin-3-yl)pyrazolo[5,1-b]thiazole-7-carboxamide]
IC50: 12.1 nM

Compound: Cc1cc(C(=O)NCCN2CCCC23CCC3)sc1NC(=O)c1cnn2cc(-c3cnn(C)c3)sc12 [Example 35, N-(5-((2-(5-azaspiro[3.4]octan-5-yl)ethyl)carbamoyl)-3-methylthiophen-2-yl)-2-(1-methyl-1H-pyrazol-4-yl)pyrazolo[5,1-b]thiazole-7-carboxamide]
IC50: 1.6 nM

Compound: Cc1ncc(NC(=O)CN2CCCC2(C)C)cc1NC(=O)c1cnn2cc(-c3cnn4c3COCC4)sc12 [Example 458, 2-(6,7-dihydro-4H-pyrazolo[5,1-c][1,4]oxazin-3-yl)-N-(5-(2-(2,2-dimethylpyrrolidin-1-yl)acetamido)-2-methylpyridin-3-yl)pyrazolo[5,1-b]thiazole-7-carboxamide]
IC50: 0.3 nM

Compound: Cc1ncc(NC(=O)CN2CCCC2(C)C)cc1NC(=O)c1cnn2cc(-c3cn(C)nc3C)sc12 [Example 444, 2-(1,3-Dimethyl-1H-pyrazol-4-yl)-N-(5-(2-(2,2-dimethylpyrrolidin-1-yl)acetamido)-2-methylpyridin-3-yl)pyrazolo[5,1-b]thiazole-7-carboxamide]
IC50: 0.2 nM

Compound: Cc1ncc(NC(=O)CN2CCCC2(C)C)cc1NC(=O)c1cnn2cc(-c3cnn(C(C)(C)CO)c3)sc12 [Example 457, N-(5-(2-(2,2-dimethylpyrrolidin-1-yl)acetamido)-2-methylpyridin-3-yl)-2-(1-(1-hydroxy-2-methylpropan-2-yl)-1H-pyrazol-4-yl)pyrazolo[5,1-b]thiazole-7-carboxamide]
IC50: 0.4 nM

Compound: Cc1ncc(NC(=O)CC2CN(C)C2)cc1NC(=O)c1cnn2cc(-c3cnn4c3CCC4)sc12 [Example 468, 2-(5,6-dihydro-4H-pyrrolo[1,2-b]pyrazol-3-yl)-N-(2-methyl-5-(2-(1-methylazetidin-3-yl)acetamido)pyridin-3-yl)pyrazolo[5,1-b]thiazole-7-carboxamide]
IC50: 2.1 nM

Compound: COc1ccncc1-c1cn2ncc(C(=O)Nc3cc(NC(=O)CN4CC(C)(C)C4)cnc3C)c2s1 [Example 40, N-(5-(2-(3,3-dimethylazetidin-1-yl)acetamido)-2-methylpyridin-3-yl)-2-(4-methoxypyridin-3-yl)pyrazolo[5,1-b]thiazole-7-carboxamide]
IC50: 0.27 nM

Compound: Cc1ncc(NC(=O)CN2C[C@@H](C)O[C@H](C)C2)cc1NC(=O)c1cnn2cc(-c3cn(C)nc3C)sc12 [Example 431]
IC50: 0.5 nM
